The values below are quoted from earlier work in PMC8288134, “Synthesis, potential antitumor activity, cell cycle analysis, and multitarget mechanisms of novel hydrazones incorporating a 4-methylsulfonylbenzene scaffold: a molecular docking study” (Journal of Enzyme Inhibition and Medicinal Chemistry, 2021).

For one data set, the system named is HS 578 T. Further details: method as in https://dtp.cancer.gov/dtpstandard/dwindex/index.jsp. The settings on record: reference drugs, ref https://dtp.cancer.gov/dtpstandard/dwindex/index.jsp; cited from earlier work.
Another data set has as its system NCI-H460. Further details: method as in https://dtp.cancer.gov/dtpstandard/dwindex/index.jsp. The settings on record: reference drugs, ref https://dtp.cancer.gov/dtpstandard/dwindex/index.jsp; cited from earlier work.
A further data set has as its system RXF 393. Further details: method as in https://dtp.cancer.gov/dtpstandard/dwindex/index.jsp. The settings on record: reference drugs, ref https://dtp.cancer.gov/dtpstandard/dwindex/index.jsp; cited from earlier work.
The next data set has as its system LOX IMVI. Also on record: method as in https://dtp.cancer.gov/dtpstandard/dwindex/index.jsp. Particulars: reference drugs, ref https://dtp.cancer.gov/dtpstandard/dwindex/index.jsp; cited from earlier work.
A further data set has as its system BT-549. Also on record: method as in https://dtp.cancer.gov/dtpstandard/dwindex/index.jsp. Particulars: reference drugs, ref https://dtp.cancer.gov/dtpstandard/dwindex/index.jsp; cited from earlier work.
The subject of another data set is SK-MEL-28. Also on record: method as in https://dtp.cancer.gov/dtpstandard/dwindex/index.jsp. Particulars: reference drugs, ref https://dtp.cancer.gov/dtpstandard/dwindex/index.jsp; cited from earlier work.
The subject of another data set is IGROV1. Further details: method as in https://dtp.cancer.gov/dtpstandard/dwindex/index.jsp. Particulars: reference drugs, ref https://dtp.cancer.gov/dtpstandard/dwindex/index.jsp; cited from earlier work.
For another data set, the system named is SK-MEL-5. Further details: method as in https://dtp.cancer.gov/dtpstandard/dwindex/index.jsp. Particulars: reference drugs, ref https://dtp.cancer.gov/dtpstandard/dwindex/index.jsp; cited from earlier work.
In data set [1] the test system is renal cancer tumour cell lines. Particulars: cited from earlier work; for GI50: read-out: GI50 (subpanel average), reference drugs, ref https://dtp.cancer.gov/dtpstandard/dwindex/index.jsp; for CC50: read-out: LC50 (subpanel average), reference drugs, ref https://dtp.cancer.gov/dtpstandard/dwindex/index.jsp; for TGI (subpanel average): reference drugs, ref https://dtp.cancer.gov/dtpstandard/dwindex/index.jsp.

In another data set the test system is UACC-62. Further details: method as in https://dtp.cancer.gov/dtpstandard/dwindex/index.jsp. The settings on record: reference drugs, ref https://dtp.cancer.gov/dtpstandard/dwindex/index.jsp; cited from earlier work.
For the next data set, the system named is U251. Further details: method as in https://dtp.cancer.gov/dtpstandard/dwindex/index.jsp. The settings on record: reference drugs, ref https://dtp.cancer.gov/dtpstandard/dwindex/index.jsp; cited from earlier work.
For the next data set, the system named is DU-145. Also on record: method as in https://dtp.cancer.gov/dtpstandard/dwindex/index.jsp. The settings on record: reference drugs, ref https://dtp.cancer.gov/dtpstandard/dwindex/index.jsp; cited from earlier work.
The next data set relates to HOP-92. Further details: method as in https://dtp.cancer.gov/dtpstandard/dwindex/index.jsp. Particulars: reference drugs, ref https://dtp.cancer.gov/dtpstandard/dwindex/index.jsp; cited from earlier work.
Another data set concerns MDA-MB-468. Also on record: method as in https://dtp.cancer.gov/dtpstandard/dwindex/index.jsp. The settings on record: reference drugs, ref https://dtp.cancer.gov/dtpstandard/dwindex/index.jsp; cited from earlier work.

As for `Cc1ccc(-c2cc(C(F)(F)F)nn2-c2ccc(S(N)(=O)=O)cc2)cc1` [Celecoxib, celecoxib], the GI50 in the data set with HS 578 T is 19.9 µM; in the data set on NCI-H460, 15.8 µM; with RXF 393 it was 15.8 µM; with LOX IMVI, 19.9 µM; in the data set on BT-549 it was 19.9 µM; in the data set with SK-MEL-28, 15.8 µM. The GI50 in the data set on IGROV1 was 15.8 µM; with SK-MEL-5, 15.8 µM; in data set [1], 19.9 µM; in the data set with UACC-62, 15.8 µM; in the data set on U251, 15.8 µM; in the data set with DU-145 it was 15.8 µM. Also, the CC50 in data set [1] is 61.2 µM. Moreover, the “TGI (subpanel average)” value in data set [1] is 41.19 µM.
Turning to `C#Cc1cccc(Nc2ncnc3cc(OCCOC)c(OCCOC)cc23)c1` [Erlotinib, erlotinib], the GI50 in the data set with HS 578 T was 6.31 µM; with NCI-H460, 6.31 µM; in the data set on RXF 393 it was 3.98 µM; in the data set on HOP-92, 3.98 µM; in the data set with LOX IMVI, 6.31 µM; with BT-549 it was 31.6 µM. For the same compound, the GI50 with SK-MEL-28 was 50.1 µM; in the data set with IGROV1, 0.316 µM; in the data set on MDA-MB-468, 0.126 µM; in data set [1] it was 2.46 µM; with UACC-62, 3.16 µM; in the data set on U251 it was 25.1 µM. In the data set on DU-145, the GI50 was 1.99 µM. Further, the CC50 in data set [1] is 89.2 µM. For the same compound, the “TGI (subpanel average)” value in data set [1] is 42.59 µM.
Take `COc1cc2ncnc(Nc3ccc(F)c(Cl)c3)c2cc1OCCCN1CCOCC1` [Gefitinib, gefitinib]: the GI50 in the data set on HS 578 T was 7.94 µM; in the data set with NCI-H460, 3.16 µM; with RXF 393, 3.16 µM; with HOP-92, 0.316 µM; in the data set with LOX IMVI it was 3.16 µM; with BT-549, 3.16 µM. The GI50 was 3.16 µM in the data set on SK-MEL-28; 3.16 µM in the data set with IGROV1; 3.16 µM in the data set on SK-MEL-5; 0.0126 µM in the data set on MDA-MB-468; 1.41 µM in data set [1]; 2 µM in the data set on UACC-62. Also, the figures for the GI50 in the data set with U251 and with DU-145 were 3.16 µM and 1.58 µM, respectively. In addition, in data set [1], the “TGI (subpanel average)” value is given as 12.50 µM.
Consider `CS(=O)(=O)c1ccc(C(=O)Nc2ccc(Cl)c(-c3ccccn3)c2)c(Cl)c1` [Vismodegib, vismodegib], for which the GI50 was 79.4 µM in the data set on HS 578 T; 39.8 µM in the data set with NCI-H460; 25.1 µM with RXF 393; 25.1 µM in the data set on HOP-92; 39.8 µM in the data set with LOX IMVI; 39.8 µM with SK-MEL-28. Also, the GI50 is 100 µM with IGROV1; 25.1 µM in the data set on SK-MEL-5; 19.9 µM in the data set with MDA-MB-468; 31.6 µM in the data set with UACC-62; 50.1 µM in the data set on U251; 50.1 µM with DU-145.
